# According to patent publication US9181186B2, “Aromatic ring compound” (TAKEDA PHARMACEUTICAL COMPANY LIMITED, priority 2012, dated 2015):
# Molecular target: T1, human GPR40 (Homo sapiens, UniProt O14842)
# T1 construct: expressed in transfected cells
# Assay: Evaluation of human GPR40 agonist activity with increase in intracellular Ca2+ concentration as an index (FLIPR Tetra)
# Assay type: cell-based
# Details: test compound 1 μM; CHO(dhfr−) cells stably expressing human GPR40; 100% = 1 μM WO2009/048527 Example 99.2, 0% = DMSO
# Experimental: Evaluation of Human GPR40 Agonist Activity with Increase in Intracellular Ca^2+ Concentration as an Index
# CHO(dhfr−) cells that stably expressed human GPR40 were suspended in MEMα (Nikken Bio Medical Laboratory) containing 10% dialysis serum (GEMINI BIO-PRODUCTS), 10 mM HEPES (Invitrogen), 100 U/mL penicillin, 100 μg/mL streptomycin (Invitrogen), and plated on a 384 well black/clear cell culture plate at 10,000 cells/well. After culture overnight in a CO2 incubator at 37° C., the culture supernatant was removed, and a loading buffer [dye attached to Calcium 5 Assay Kit (Molecular Devices) was dissolved in an assay buffer (20 mM HEPES, 0.2% fatty acid-free BSA (Sigma-Aldrich), 2.5 mM probenecid (DOJINDO)-containing HBSS (Invitrogen)) added with 0.025% Cremophor EL (DOJINDO)] was added at 37.5 μL/well. After incubation in a CO2 incubator at 37° C. for 1 hr, the cells were stood at room temperature for 15 min, an assay buffer containing the test compound at a final concentration of 1 μM was added at 12.5 μL/well in FLIPR Tetra (Molecular Devices), and the fluorescence amount was successively measured. Human GPR40 agonist activity calculated using an increase in the intracellular Ca^2+ concentration as an index, wherein the activity of 1 μM of the compound described in WO 2009/048527 (WO2009/048527 Example 99.2) was 100%, and the activity when DMSO was added instead of the test compound was 0%.
# T1 sequence (O14842 whole entry): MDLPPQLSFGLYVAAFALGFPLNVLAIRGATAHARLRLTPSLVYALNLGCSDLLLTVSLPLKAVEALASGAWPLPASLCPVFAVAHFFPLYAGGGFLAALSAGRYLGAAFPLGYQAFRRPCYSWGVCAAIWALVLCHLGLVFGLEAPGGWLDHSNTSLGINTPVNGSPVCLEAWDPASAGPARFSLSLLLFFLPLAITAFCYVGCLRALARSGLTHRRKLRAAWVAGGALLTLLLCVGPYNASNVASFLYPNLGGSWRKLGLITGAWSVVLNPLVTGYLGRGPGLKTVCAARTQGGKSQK
SMILES,Human GPR40 agonist activity (increase in intracellular Ca2+ concentration) [%],activation at 1 µM [%]
"COc1ccc(F)c(-c2ccc(COc3cccc(C(CC(=O)O)C4CC4)c3)nc2CC(C)(C)C)c1 (single isomer, unassigned) [Example 7, 3-cyclopropyl-3-(3-((6-(2,2-dimethylpropyl)-5-(2-fluoro-5-methoxyphenyl)pyridin-2-yl)methoxy)phenyl)propanoic acid]",106,
"COc1ccc(F)c(-c2ccc(COc3cccc(C(CC(=O)O)C4CC4)c3)nc2OCC(C)C)c1 (stereo not shown) [Example 1, 3-cyclopropyl-3-(3-((5-(2-fluoro-5-methoxyphenyl)-6-isobutoxypyridin-2-yl)methoxy)phenyl)propanoic acid]",,100
"COc1ccc(F)c(-c2ccc(COc3cc(C(CC(=O)O)C4CC4)ncn3)nc2OCC(C)C)c1 (stereo not shown) [Example 2, 3-cyclopropyl-3-(6-((5-(2-fluoro-5-methoxyphenyl)-6-isobutoxypyridin-2-yl)methoxy)pyrimidin-4-yl)propanoic acid]",,107
"COc1ccc(F)c(-c2cnc(COc3cc(C(CC(=O)O)C4CC4)ncn3)cc2OCC(C)C)c1 (stereo not shown) [Example 6, 3-cyclopropyl-3-(6-((5-(2-fluoro-5-methoxyphenyl)-4-isobutoxypyridin-2-yl)methoxy)pyrimidin-4-yl)propanoic acid]",,98
"COc1ccc(F)c(-c2ccc(COc3cc(C(CC(=O)O)C4CC4)ncn3)nc2CC(C)(C)C)c1 (stereo not shown) [Example 8, 3-cyclopropyl-3-(6-((6-(2,2-dimethylpropyl)-5-(2-fluoro-5-methoxyphenyl)pyridin-2-yl)methoxy)pyrimidin-4-yl)propanoic acid]",,106
"COc1ccc(F)c(-c2ccc(COc3cccc(C(CC(=O)O)C4CC4)c3)nc2CC(C)(C)C)c1 (stereo not shown) [Example 11, 3-cyclopropyl-3-(3-((6-(2,2-dimethylpropyl)-5-(2-fluoro-5-methoxyphenyl)pyridin-2-yl)methoxy)phenyl)propanoic acid]",,100
"COc1ccc(F)c(-c2ccc(COc3cc(C(CC(=O)O)C4CC4)ccc3OC)nc2CC(C)(C)C)c1 (stereo not shown) [Example 12, 3-cyclopropyl-3-(3-((6-(2,2-dimethylpropyl)-5-(2-fluoro-5-methoxyphenyl)pyridin-2-yl)methoxy)-4-methoxyphenyl)propanoic acid]",,112
"COc1ccc(F)c(-c2ccc(COc3cc(CCC(=O)O)ccc3C)nc2CC(C)(C)C)c1 [Example 13, 3-(3-((6-(2,2-dimethylpropyl)-5-(2-fluoro-5-methoxyphenyl)pyridin-2-yl)methoxy)-4-methylphenyl)propanoic acid]",,110
"COc1cc(CCC(=O)O)cc(OCc2ccc(-c3cc(OC)ccc3F)c(CC(C)(C)C)n2)c1 [Example 15, 3-(3-((6-(2,2-dimethylpropyl)-5-(2-fluoro-5-methoxyphenyl)pyridin-2-yl)methoxy)-5-methoxyphenyl)propanoic acid]",,103
"COc1ccc(F)c(-c2ccc(COc3cc(F)cc(CCC(=O)O)c3)nc2CC(C)(C)C)c1 [Example 16, 3-(3-((6-(2,2-dimethylpropyl)-5-(2-fluoro-5-methoxyphenyl)pyridin-2-yl)methoxy)-5-fluorophenyl)propanoic acid]",,109
"COc1ccc(F)c(-c2ccc(COc3ccc(C)c(CCC(=O)O)c3)nc2CC(C)(C)C)c1 [Example 17, 3-(5-((6-(2,2-dimethylpropyl)-5-(2-fluoro-5-methoxyphenyl)pyridin-2-yl)methoxy)-2-methylphenyl)propanoic acid]",,109
"COc1ccc(F)c(-c2ccc(COc3ccc(OC)c(CCC(=O)O)c3)nc2CC(C)(C)C)c1 [Example 18, 3-(5-((6-(2,2-dimethylpropyl)-5-(2-fluoro-5-methoxyphenyl)pyridin-2-yl)methoxy)-2-methoxyphenyl)propanoic acid]",,109
"COc1ccc(F)c(-c2ccc(COc3ccc(F)c(CCC(=O)O)c3)nc2CC(C)(C)C)c1 [Example 19, 3-(5-((6-(2,2-dimethylpropyl)-5-(2-fluoro-5-methoxyphenyl)pyridin-2-yl)methoxy)-2-fluorophenyl)propanoic acid]",,109
"COc1ccc(F)c(-c2ccc(COc3cccc(CCC(=O)O)c3F)nc2CC(C)(C)C)c1 [Example 22, 3-(3-((6-(2,2-dimethylpropyl)-5-(2-fluoro-5-methoxyphenyl)pyridin-2-yl)methoxy)-2-fluorophenyl)propanoic acid]",,103
"COc1ccc(F)c(-c2ccc(COc3cc(C)cc(CCC(=O)O)c3)nc2CC(C)(C)C)c1 [Example 23, Sodium 3-(3-((6-(2,2-dimethylpropyl)-5-(2-fluoro-5-methoxyphenyl)pyridin-2-yl)methoxy)-5-methylphenyl)propanoate]",,99
"COc1ccc(F)c(-c2ccc(COc3cccc(CCC(=O)O)c3)nc2CC(C)(C)C)c1 [Example 29, 3-(3-((6-(2,2-dimethylpropyl)-5-(2-fluoro-5-methoxyphenyl)pyridin-2-yl)methoxy)phenyl)propanoic acid]",,103
"COc1ccc(F)c(-c2ccc(COc3cc(C(CC(=O)O)C4CC4)ccn3)nc2CC(C)(C)C)c1 (stereo not shown) [Example 30, 3-cyclopropyl-3-(2-((6-(2,2-dimethylpropyl)-5-(2-fluoro-5-methoxyphenyl)pyridin-2-yl)methoxy)pyridin-4-yl)propanoic acid]",,112
"COc1ccc(F)c(-c2ncc(COc3cccc(C(CC(=O)O)C4CC4)c3)cc2OCC(C)C)c1 (stereo not shown) [Example 31, 3-cyclopropyl-3-(3-((6-(2-fluoro-5-methoxyphenyl)-5-isobutoxypyridin-3-yl)methoxy)phenyl)propanoic acid]",,104
"COc1ccc(F)c(-c2ncc(COc3cc(C(CC(=O)O)C4CC4)ncn3)cc2OCC(C)C)c1 (stereo not shown) [Example 32, 3-cyclopropyl-3-(6-((6-(2-fluoro-5-methoxyphenyl)-5-isobutoxypyridin-3-yl)methoxy)pyrimidin-4-yl)propanoic acid]",,104
"COc1ccc(F)c(-c2ncc(COc3cccc(C(CC(=O)O)C4CC4)c3)cc2CC(C)(C)C)c1 (stereo not shown) [Example 34, 3-cyclopropyl-3-(3-((5-(2,2-dimethylpropyl)-6-(2-fluoro-5-methoxyphenyl)pyridin-3-yl)methoxy)phenyl)propanoic acid]",,118
"COc1ccc(F)c(-c2ncc(COc3cc(C(CC(=O)O)C4CC4)ncn3)cc2CC(C)(C)C)c1 (stereo not shown) [Example 35, 3-cyclopropyl-3-(6-((5-(2,2-dimethylpropyl)-6-(2-fluoro-5-methoxyphenyl)pyridin-3-yl)methoxy)pyrimidin-4-yl)propanoic acid]",,101
"COc1ccc(F)c(-c2ncc(COc3cc(C(CC(=O)O)C4CC4)ncn3)cc2OCC(C)(C)C)c1 (stereo not shown) [Example 36, 3-cyclopropyl-3-(6-((5-(2,2-dimethylpropoxy)-6-(2-fluoro-5-methoxyphenyl)pyridin-3-yl)methoxy)pyrimidin-4-yl)propanoic acid]",,106
"COc1ccc(F)c(-c2ncc(COc3cc(C(CC(=O)O)C4CC4)ncn3)cc2OCCC(F)(F)F)c1 (stereo not shown) [Example 37, 3-cyclopropyl-3-(6-((6-(2-fluoro-5-methoxyphenyl)-5-(3,3,3-trifluoropropoxy)pyridin-3-yl)methoxy)pyrimidin-4-yl)propanoic acid]",,101
"COc1ccc(F)c(-c2ncc(COc3cc(C(CC(=O)O)C4CC4)ccn3)cc2CC(C)(C)C)c1 (stereo not shown) [Example 40, 3-cyclopropyl-3-(2-((5-(2,2-dimethylpropyl)-6-(2-fluoro-5-methoxyphenyl)pyridin-3-yl)methoxy)pyridin-4-yl)propanoic acid]",,113
"COc1ccc(F)c(-c2cnc(COc3cc(C(CC(=O)O)C4CC4)ncn3)nc2OCC(C)C)c1 (stereo not shown) [Example 41, 3-cyclopropyl-3-(6-((5-(2-fluoro-5-methoxyphenyl)-4-isobutoxypyrimidin-2-yl)methoxy)pyrimidin-4-yl)propanoic acid]",,110
"COc1ccc(F)c(-c2ccc(COc3cc(C(CC(=O)O)C4CC4)c(F)cn3)nc2CC(C)(C)C)c1 (stereo not shown) [Example 42, 3-cyclopropyl-3-(5-fluoro-2-((5-(2-fluoro-5-methoxyphenyl)-6-neopentylpyridin-2-yl)methoxy)pyridin-4-yl)propanoic acid]",,115
"COc1ccc(F)c(-c2ncc(COc3cc(C(CC(=O)O)C4CC4)c(F)cn3)cc2CC2(C#N)CCCC2)c1 (stereo not shown) [Example 43, 3-(2-((5-((1-cyanocyclopentyl)methyl)-6-(2-fluoro-5-methoxyphenyl)pyridin-3-yl)methoxy)-5-fluoropyridin-4-yl)-3-cyclopropylpropanoic acid]",,115
"COc1ccc(F)c(-c2ncc(COc3cc(C(CC(=O)O)C4CC4)c(F)cn3)cc2CC2(C#N)CCCC2)c1 (stereo not shown) [Example 44, 3-(2-((5-((1-cyanocyclopentyl)methyl)-6-(2-fluoro-5-methoxyphenyl)pyridin-3-yl)methoxy)-5-fluoropyridin-4-yl)-3-cyclopropylpropanoic acid]",107,
